In patent publication US9062072B2, “Inhibitors of HIF and angiogenesis” (Emory University, priority 2010, dated 2015):
Where two headings read alike, the source gives them in different places.

System: HIF-1-mediated transcription
Test: HIF-1-mediated transcription under hypoxia, LN229-HRE-Lux luciferase reporter assay
Format: cell-based, human
Settings: Homo sapiens, LN229-HRE-Lux cells, hypoxia (1% O2)
Procedure: The synthesized analogues were evaluated for their potential to inhibit HIF-1-mediated transcription under hypoxia (1% O2) using a human glioma cell line LN229-HRE-Lux, which stably expresses a hypoxia-responsive luciferase reporter gene (Table 1-9). […] The compounds were tested in single (n=1) or multiple (n>1) independent experiments each carried out in quadruplicate.
LN229-HRE-luciferase human glioblastoma cells were used to perform the assay. […] 48-well plates were seeded with 3.10^4 cells per well and incubated under normoxic conditions for 24 h. Cells were then pre-treated with different concentrations of KCN-1 or its analogues for 1 h and then transferred to hypoxic conditions. After 24 h, media was aspirated, cells were lysed and reporter activity was measured in the lysate using Luciferase Assay System (Promega, Madison, Wis.) with 20/20^n Luminometer (Promega).

[1] = 24 h, Table 8, 24 h, results from single runs, read-out: IC50
[2] = 24 h, Table 9, results from single runs

## CCCCS(=O)(=O)N(Cc1ccc2c(n1)C=CC(C)(C)O2)c1ccccc1 [Compound 26n, N-((2,2-Dimethyl-2H-pyrano[3,2-b]pyridin-6-yl)methyl)-N-phenylbutane-1-sulfonamide]
[1]
  IC50: 5 µM

## CCCS(=O)(=O)N(Cc1ccc2c(n1)C=CC(C)(C)O2)c1ccccc1 [Compound 26o, N-((2,2-Dimethyl-2H-pyrano[3,2-b]pyridin-6-yl)methyl)-N-phenylpropane-1-sulfonamide]
[1]
  IC50: 6.4 µM

## CC(C)CS(=O)(=O)N(Cc1ccc2c(n1)C=CC(C)(C)O2)c1ccccc1 [Compound 26p, N-((2,2-Dimethyl-2H-pyrano[3,2-b]pyridin-6-yl)methyl)-2-methyl-N-phenylpropane-1-sulfonamide]
[1]
  IC50: 0.9 µM

## CC1(C)C=Cc2nc(CN(c3ccccc3)S(=O)(=O)c3ccc(-c4ccccc4)cc3)ccc2O1 [Compound 26q, N-((2,2-Dimethyl-2H-pyrano[3,2-b]pyridin-6-yl)methyl)-N-phenylbiphenyl-4-sulfonamide]
[1]
  IC50: 3.4 µM

## CC1(C)C=Cc2nc(CN(c3ccccc3)S(=O)(=O)c3cccc4cccnc34)ccc2O1 [Compound 26s, N-((2,2-Dimethyl-2H-pyrano[3,2-b]pyridin-6-yl)methyl)-N-phenylquinoline-8-sulfonamide]
[1]
  IC50: 0.9 µM
24 h, 24 h, read-out: IC50
  IC50: 0.9 µM

## CC1(C)C=Cc2nc(CN(c3ccccc3)S(=O)(=O)c3ccc4c(c3)OCCO4)ccc2O1 [Compound 26t, N-((2,2-dimethyl-2H-pyrano[3,2-b]pyridin-6-yl)methyl)-N-phenyl-2,3-dihydrobenzo[b][1,4]dioxine-6-sulfonamide]
[1]
  IC50: 0.9 µM

## COc1ccc(S(=O)(=O)N(Cc2cc3c(cn2)OC(C)(C)C=C3)c2ccccc2)cc1 [Compound 36a, N-((2,2-Dimethyl-2H-pyrano[2,3-c]pyridin-6-yl)methyl)-4-methoxy-N-phenylbenzenesulfonamide]
24 h, Table 9, 24 h, results from single runs, read-out: IC50
  IC50: 1.4 µM
24 h, 24 h, read-out: IC50
  IC50: 1.42 µM

## CC1(C)C=Cc2cc(CN(c3ccccc3)S(=O)(=O)c3ccc([N+](=O)[O-])cc3)ncc2O1 [Compound 36b, N-((2,2-Dimethyl-2H-pyrano[2,3-c]pyridin-6-yl)methyl)-4-nitro-N-phenylbenzenesulfonamide]
[2]
  IC50: 1.8 µM
24 h
  IC50: 1.8 µM

## CC(C)c1ccc(S(=O)(=O)N(Cc2cc3c(cn2)OC(C)(C)C=C3)C2CCCCC2)cc1 [Compound 36c, N-Cyclohexyl-N-((2,2-dimethyl-2H-pyrano[2,3-c]pyridin-6-yl)methyl)-4-isopropylbenzenesulfonamide]
[2]
  IC50: 1.1 µM
24 h
  IC50: 1.08 µM

## COc1ccc(S(=O)(=O)N(Cc2cc3c(cn2)OC(C)(C)C=C3)C2CCCCC2)cc1OC [Compound 36d, N-Cyclohexyl-N-((2,2-dimethyl-2H-pyrano[2,3-c]pyridin-6-yl)methyl)-3,4-dimethoxybenzenesulfonamide]
[2]
  IC50: 5.8 µM

## COc1ccc(S(=O)(=O)N(Cc2ccc3c(c2)C=CC(C)(C)O3)c2ccccc2)cc1OC [KCN-1, N-((2,2-dimethyl-2H-chromen-6-yl)methyl)-3,4-dimethoxy-N-phenylbenzenesulfonamide, reference compound]
n=26, read-out: IC50
  IC50: 0.7 ± 0.4 µM
